Assay results taken from paper PMC10722513.

Test: Au(I)-catalysed intramolecular Trp C2-H alkynylation: peptide-EBX (4-ethynylbenzoyl bis-CF3-benziodoxole on Lys side chain or N-terminus) + AuCl·Me2S, open flask
Conditions: HFIP, 5.0 mM, 25.0 °C, 0.17 h

With `CC(=O)N[C@H](C(=O)N[C@@H](CO)C(=O)N[C@@H](Cc1ccccc1)C(=O)N[C@H]1CCCCNC(=O)c2ccc(cc2)C#Cc2[nH]c3ccccc3c2C[C@@H](C(=O)N[C@@H](C)C(=O)N[C@@H](CC(C)C)C(=O)N[C@@H](CC(C)C)C(=O)N[C@@H](Cc2c[nH]c3ccccc23)C(N)=O)NC(=O)[C@H](Cc2ccc(O)cc2)NC(=O)[C@H](CCC(=O)O)NC1=O)[C@@H](C)O` [Ac-T-S-F-K(EBX)-E-Y-W-A-L-L-W-NH2] the ring closure, isolated yield (from CC(=O)N[C@H](C(=O)N[C@@H](CO)C(=O)N[C@@H](Cc1ccccc1)C(=O)N[C@@H](CCCCNC(=O)c1ccc(C#CI2OC(C(F)(F)F)(C(F)(F)F)c3ccccc32)cc1)C(=O)N[C@@H](CCC(=O)O)C(=O)N[C@@H](Cc1ccc(O)cc1)C(=O)N[C@@H](Cc1c[nH]c2ccccc12)C(=O)N[C@@H](C)C(=O)N[C@@H](CC(C)C)C(=O)N[C@@H](CC(C)C)C(=O)N[C@@H](Cc1c[nH]c2ccccc12)C(N)=O)[C@@H](C)O, 25-membered ring) was 45%.
Work on `CC(C)C[C@@H]1NC(=O)[C@H](CC(=O)O)NC(=O)[C@H](CC(=O)O)NC(=O)[C@H](Cc2ccccc2)NC(=O)[C@H](Cc2ccccc2)NC(=O)CNC(=O)c2ccc(cc2)C#Cc2[nH]c3ccccc3c2C[C@@H](C(=O)N[C@@H](Cc2ccccc2)C(=O)N[C@H](C(=O)N[C@@H](C)C(N)=O)C(C)C)NC(=O)[C@H](Cc2ccc(O)cc2)NC1=O` [EBX-G-F-F-D-D-L-Y-W-F-V-A-NH2] yielded a ring closure, isolated yield (from CC(C)C[C@H](NC(=O)[C@H](CC(=O)O)NC(=O)[C@H](CC(=O)O)NC(=O)[C@H](Cc1ccccc1)NC(=O)[C@H](Cc1ccccc1)NC(=O)CNC(=O)c1ccc(C#CI2OC(C(F)(F)F)(C(F)(F)F)c3ccccc32)cc1)C(=O)N[C@@H](Cc1ccc(O)cc1)C(=O)N[C@@H](Cc1c[nH]c2ccccc12)C(=O)N[C@@H](Cc1ccccc1)C(=O)N[C@H](C(=O)N[C@@H](C)C(N)=O)C(C)C, 33-membered ring) of 56%.
`C[C@@H]1NC(=O)[C@H](CC(=O)O)NC(=O)CNC(=O)c2ccc(cc2)C#Cc2[nH]c3ccccc3c2C[C@@H](C(N)=O)NC(=O)[C@H](CCC(=O)O)NC(=O)CNC(=O)[C@H]([C@@H](C)O)NC(=O)[C@H](CCC(=O)O)NC1=O` [EBX-G-D-A-E-T-G-E-W-NH2] gave a ring closure, isolated yield (from C[C@H](NC(=O)[C@H](CC(=O)O)NC(=O)CNC(=O)c1ccc(C#CI2OC(C(F)(F)F)(C(F)(F)F)c3ccccc32)cc1)C(=O)N[C@@H](CCC(=O)O)C(=O)N[C@H](C(=O)NCC(=O)N[C@@H](CCC(=O)O)C(=O)N[C@@H](Cc1c[nH]c2ccccc12)C(N)=O)[C@@H](C)O, 33-membered ring) of 47%.
In the case of `CC(=O)N[C@H]1CCCCNC(=O)c2ccc(cc2)C#Cc2[nH]c3ccccc3c2C[C@@H](C(=O)O)NC(=O)[C@H](Cc2ccccc2)NC(=O)[C@H](C)NC(=O)[C@H](CC(=O)O)NC1=O` [Ac-K(EBX)-D-A-F-W-OH], the ring closure, isolated yield (from CC(=O)N[C@@H](CCCCNC(=O)c1ccc(C#CI2OC(C(F)(F)F)(C(F)(F)F)c3ccccc32)cc1)C(=O)N[C@@H](CC(=O)O)C(=O)N[C@@H](C)C(=O)N[C@@H](Cc1ccccc1)C(=O)N[C@@H](Cc1c[nH]c2ccccc12)C(=O)O, 28-membered ring) is reported as 51%.
With `CC(=O)N[C@H]1CCCCNC(=O)c2ccc(cc2)C#Cc2[nH]c3ccccc3c2C[C@@H](C(=O)O)NC(=O)[C@H](Cc2ccccc2)NC(=O)[C@H](C)NC(=O)[C@H](CSSC(C)(C)C)NC1=O` [Ac-K(EBX)-C(StBu)-A-F-W-OH] the ring closure, isolated yield (from CC(=O)N[C@@H](CCCCNC(=O)c1ccc(C#CI2OC(C(F)(F)F)(C(F)(F)F)c3ccccc32)cc1)C(=O)N[C@@H](CSSC(C)(C)C)C(=O)N[C@@H](C)C(=O)N[C@@H](Cc1ccccc1)C(=O)N[C@@H](Cc1c[nH]c2ccccc12)C(=O)O, 28-membered ring) was 25%.
For `CC(=O)N[C@H]1CCCCNC(=O)c2ccc(cc2)C#Cc2[nH]c3ccccc3c2C[C@@H](C(=O)O)NC(=O)[C@H](Cc2ccccc2)NC(=O)[C@H](C)NC(=O)[C@H](CC(C)C)NC1=O` [Ac-K(EBX)-L-A-F-W-OH], the ring closure, isolated yield (from CC(=O)N[C@@H](CCCCNC(=O)c1ccc(C#CI2OC(C(F)(F)F)(C(F)(F)F)c3ccccc32)cc1)C(=O)N[C@@H](CC(C)C)C(=O)N[C@@H](C)C(=O)N[C@@H](Cc1ccccc1)C(=O)N[C@@H](Cc1c[nH]c2ccccc12)C(=O)O, 28-membered ring) was 56%.
Molecule `N=C(N)NCCC[C@@H]1NC(=O)[C@H](CCCNC(=N)N)NC(=O)[C@H](CCCNC(=N)N)NC(=O)[C@H](CCCNC(=N)N)NC(=O)[C@H](Cc2ccc3ccccc3c2)NC(=O)[C@H](Cc2ccccc2)NC(=O)c2ccc(cc2)C#Cc2[nH]c3ccccc3c2C[C@@H](C(N)=O)NC1=O` [EBX-F-Nal(2)-R-R-R-R-W-NH2] has a ring closure, isolated yield (from N=C(N)NCCC[C@H](NC(=O)[C@H](CCCNC(=N)N)NC(=O)[C@H](CCCNC(=N)N)NC(=O)[C@H](CCCNC(=N)N)NC(=O)[C@H](Cc1ccc2ccccc2c1)NC(=O)[C@H](Cc1ccccc1)NC(=O)c1ccc(C#CI2OC(C(F)(F)F)(C(F)(F)F)c3ccccc32)cc1)C(=O)N[C@@H](Cc1c[nH]c2ccccc12)C(N)=O, 30-membered ring) of 57%.
Molecule `CC(=O)N[C@H]1CCCCNC(=O)c2ccc(cc2)C#Cc2[nH]c3ccccc3c2C[C@@H](C(=O)O)NC(=O)[C@H](Cc2ccccc2)NC(=O)[C@H](C)NC(=O)[C@H](CCCNC(=N)N)NC1=O` [Ac-K(EBX)-R-A-F-W-OH] has a ring closure, isolated yield (from CC(=O)N[C@@H](CCCCNC(=O)c1ccc(C#CI2OC(C(F)(F)F)(C(F)(F)F)c3ccccc32)cc1)C(=O)N[C@@H](CCCNC(=N)N)C(=O)N[C@@H](C)C(=O)N[C@@H](Cc1ccccc1)C(=O)N[C@@H](Cc1c[nH]c2ccccc12)C(=O)O, 28-membered ring) of 42%.
With `CC(=O)N[C@H]1CCCCNC(=O)c2ccc(cc2)C#Cc2[nH]c3ccccc3c2C[C@@H](C(=O)O)NC(=O)[C@H](Cc2ccccc2)NC(=O)[C@H](C)NC(=O)[C@H](CCC(N)=O)NC1=O` [Ac-K(EBX)-Q-A-F-W-OH] the ring closure, isolated yield (from CC(=O)N[C@@H](CCCCNC(=O)c1ccc(C#CI2OC(C(F)(F)F)(C(F)(F)F)c3ccccc32)cc1)C(=O)N[C@@H](CCC(N)=O)C(=O)N[C@@H](C)C(=O)N[C@@H](Cc1ccccc1)C(=O)N[C@@H](Cc1c[nH]c2ccccc12)C(=O)O, 28-membered ring) was 56%.
With `CC(=O)N[C@H]1CCCCNC(=O)c2ccc(cc2)C#Cc2[nH]c3ccccc3c2C[C@@H](C(=O)O)NC(=O)[C@H](Cc2ccccc2)NC(=O)[C@H](C)NC(=O)[C@H](CC(N)=O)NC1=O` [Ac-K(EBX)-N-A-F-W-OH] the ring closure, isolated yield (from CC(=O)N[C@@H](CCCCNC(=O)c1ccc(C#CI2OC(C(F)(F)F)(C(F)(F)F)c3ccccc32)cc1)C(=O)N[C@@H](CC(N)=O)C(=O)N[C@@H](C)C(=O)N[C@@H](Cc1ccccc1)C(=O)N[C@@H](Cc1c[nH]c2ccccc12)C(=O)O, 28-membered ring) was 52%.
With `CSCC[C@@H]1NC(=O)[C@@H](NC(C)=O)CCCCNC(=O)c2ccc(cc2)C#Cc2[nH]c3ccccc3c2C[C@@H](C(=O)O)NC(=O)[C@H](Cc2ccccc2)NC(=O)[C@H](C)NC1=O` [Ac-K(EBX)-M-A-F-W-OH] the ring closure, isolated yield (from CSCC[C@H](NC(=O)[C@H](CCCCNC(=O)c1ccc(C#CI2OC(C(F)(F)F)(C(F)(F)F)c3ccccc32)cc1)NC(C)=O)C(=O)N[C@@H](C)C(=O)N[C@@H](Cc1ccccc1)C(=O)N[C@@H](Cc1c[nH]c2ccccc12)C(=O)O, 28-membered ring) was 0%.
For `C[C@@H]1NC(=O)[C@H](CC(=O)O)NC(=O)c2ccc(cc2)C#Cc2[nH]c3ccccc3c2C[C@@H](C(N)=O)NC(=O)[C@H](CCC(=O)O)NC(=O)CNC(=O)[C@H]([C@@H](C)O)NC(=O)[C@H](CCC(=O)O)NC1=O` [EBX-D-A-E-T-G-E-W-NH2], the ring closure, isolated yield (from C[C@H](NC(=O)[C@H](CC(=O)O)NC(=O)c1ccc(C#CI2OC(C(F)(F)F)(C(F)(F)F)c3ccccc32)cc1)C(=O)N[C@@H](CCC(=O)O)C(=O)N[C@H](C(=O)NCC(=O)N[C@@H](CCC(=O)O)C(=O)N[C@@H](Cc1c[nH]c2ccccc12)C(N)=O)[C@@H](C)O, 30-membered ring) was 49%.
`C[C@@H]1NC(=O)[C@H](CC(=O)O)NC(=O)c2ccc(cc2)C#Cc2c(c3ccccc3n2C)C[C@@H](C(N)=O)NC(=O)[C@H](CCC(=O)O)NC(=O)CNC(=O)[C@H]([C@@H](C)O)NC(=O)[C@H](CCC(=O)O)NC1=O` [EBX-D-A-E-T-G-E-W(1-Me)-NH2] showed a ring closure, isolated yield (from C[C@H](NC(=O)[C@H](CC(=O)O)NC(=O)c1ccc(C#CI2OC(C(F)(F)F)(C(F)(F)F)c3ccccc32)cc1)C(=O)N[C@@H](CCC(=O)O)C(=O)N[C@H](C(=O)NCC(=O)N[C@@H](CCC(=O)O)C(=O)N[C@@H](Cc1cn(C)c2ccccc12)C(N)=O)[C@@H](C)O, 30-membered ring) of 86%.
`CC(=O)N[C@H]1CCCCNC(=O)c2ccc(cc2)C#Cc2[nH]c3ccccc3c2C[C@@H](C(=O)O)NC(=O)[C@H](Cc2ccccc2)NC(=O)[C@H](C)NC(=O)[C@H](CO)NC1=O` [Ac-K(EBX)-S-A-F-W-OH] showed a ring closure, isolated yield (from CC(=O)N[C@@H](CCCCNC(=O)c1ccc(C#CI2OC(C(F)(F)F)(C(F)(F)F)c3ccccc32)cc1)C(=O)N[C@@H](CO)C(=O)N[C@@H](C)C(=O)N[C@@H](Cc1ccccc1)C(=O)N[C@@H](Cc1c[nH]c2ccccc12)C(=O)O, 28-membered ring) of 67%.
`CC(=O)N[C@H]1CCCCNC(=O)c2ccc(cc2)C#Cc2[nH]c3ccccc3c2C[C@@H](C(=O)O)NC(=O)[C@H](Cc2ccccc2)NC(=O)[C@H](C)NC(=O)[C@H](Cc2ccc(O)cc2)NC1=O` [Ac-K(EBX)-Y-A-F-W-OH] gave a ring closure, isolated yield (from CC(=O)N[C@@H](CCCCNC(=O)c1ccc(C#CI2OC(C(F)(F)F)(C(F)(F)F)c3ccccc32)cc1)C(=O)N[C@@H](Cc1ccc(O)cc1)C(=O)N[C@@H](C)C(=O)N[C@@H](Cc1ccccc1)C(=O)N[C@@H](Cc1c[nH]c2ccccc12)C(=O)O, 28-membered ring) of 53%.
`C[C@@H]1NC(=O)[C@H](CC(=O)O)NC(=O)CNC(=O)c2ccc(cc2)C#Cc2c(c3ccccc3n2C)C[C@@H](C(N)=O)NC(=O)[C@H](CCC(=O)O)NC(=O)CNC(=O)[C@H]([C@@H](C)O)NC(=O)[C@H](CCC(=O)O)NC1=O` [EBX-G-D-A-E-T-G-E-W(1-Me)-NH2] showed a ring closure, isolated yield (from C[C@H](NC(=O)[C@H](CC(=O)O)NC(=O)CNC(=O)c1ccc(C#CI2OC(C(F)(F)F)(C(F)(F)F)c3ccccc32)cc1)C(=O)N[C@@H](CCC(=O)O)C(=O)N[C@H](C(=O)NCC(=O)N[C@@H](CCC(=O)O)C(=O)N[C@@H](Cc1cn(C)c2ccccc12)C(N)=O)[C@@H](C)O, 33-membered ring) of 61%.
